± gives the expanded uncertainty stated by the source. One block for each compound: values may come before it.
Columns and labels:
[1] = Liquid; for mass density: 101.33 kPa
[2] = refractive index (Na D-line) (dimensionless); conditions: 101.33 kPa, Liquid, Standard Abbe refractometry
[3] = xn = mol fraction of the nth substance listed; conditions: 303.15 K, 101.33 kPa, Liquid
[4] = activity coefficient (dimensionless); of the first substance listed, at infinite dilution; xn = mol fraction of the nth substance listed; conditions: Liquid, Differential ebulliometry, x1 = 0

SMILES: Nc1ccccc1 [aniline]
mass density ([1]; 293.15 K): 1021.72 ± 0.27 kg/m3
mass density ([1]; 303.15 K): 1012.94 ± 0.27 kg/m3
refractive index ([2]; 293.15 K): 1.5862 ± 0.0004

SMILES: Nc1ccccc1 [aniline] + NC1CCCCC1
mass density ([3]; x2 = 0): 1012.94 ± 0.27 kg/m3

SMILES: NC1CCCCC1 [cyclohexylamine]
mass density ([1]; 303.15 K): 858.2 ± 0.18 kg/m3
vapor or sublimation pressure ([1]; 333.15 K): 7.51 ± 0.5 kPa
vapor or sublimation pressure ([1]; 363.15 K): 25.59 ± 0.58 kPa
refractive index ([2]; 288.15 K): 1.4624 ± 0.0005

SMILES: NC1CCCCC1 [cyclohexylamine] + CCCCCCC
mass density ([3]; x1 = 0.1009): 689.34 ± 0.43 kg/m3
mass density ([3]; x1 = 0.1999): 703.99 ± 0.41 kg/m3
mass density ([3]; x1 = 0.3006): 719.71 ± 0.39 kg/m3
mass density ([3]; x1 = 0.3983): 735.92 ± 0.37 kg/m3
mass density ([3]; x1 = 0.5): 753.83 ± 0.35 kg/m3
mass density ([3]; x1 = 0.5999): 772.37 ± 0.33 kg/m3
mass density ([3]; x1 = 0.6989): 791.79 ± 0.31 kg/m3
mass density ([3]; x1 = 0.7996): 812.68 ± 0.28 kg/m3
mass density ([3]; x1 = 0.8993): 834.6 ± 0.26 kg/m3
mass density ([3]; x1 = 1): 858.2 ± 0.23 kg/m3

SMILES: NC1CCCCC1 [cyclohexylamine] + CCCCCCCC
mass density ([3]; x1 = 0.1036): 705.94 ± 0.38 kg/m3
mass density ([3]; x1 = 0.2003): 717.44 ± 0.37 kg/m3
mass density ([3]; x1 = 0.3006): 730.4 ± 0.36 kg/m3
mass density ([3]; x1 = 0.4085): 745.58 ± 0.34 kg/m3
mass density ([3]; x1 = 0.5001): 759.5 ± 0.33 kg/m3
mass density ([3]; x1 = 0.5991): 775.85 ± 0.31 kg/m3
mass density ([3]; x1 = 0.6998): 793.85 ± 0.29 kg/m3
mass density ([3]; x1 = 0.7503): 803.55 ± 0.28 kg/m3
mass density ([3]; x1 = 0.8018): 813.83 ± 0.27 kg/m3
mass density ([3]; x1 = 0.8502): 823.95 ± 0.27 kg/m3
mass density ([3]; x1 = 1): 858.2 ± 0.23 kg/m3
activity coefficient ([4]; 353.15 K): 1.61 ± 0.1
activity coefficient ([4]; 373.15 K): 1.5 ± 0.09
activity coefficient ([4]; 393.15 K): 1.42 ± 0.09

SMILES: NC1CCCCC1 [cyclohexylamine] + CCCCCCCCC
mass density ([3]; x1 = 0.0998): 718.79 ± 0.37 kg/m3
mass density ([3]; x1 = 0.1994): 728.47 ± 0.36 kg/m3
mass density ([3]; x1 = 0.301): 739.41 ± 0.35 kg/m3
mass density ([3]; x1 = 0.401): 751.43 ± 0.34 kg/m3
mass density ([3]; x1 = 0.4998): 764.51 ± 0.32 kg/m3
mass density ([3]; x1 = 0.6006): 779.38 ± 0.31 kg/m3
mass density ([3]; x1 = 0.7): 795.69 ± 0.29 kg/m3
mass density ([3]; x1 = 0.7955): 813.15 ± 0.28 kg/m3
mass density ([3]; x1 = 0.8999): 834.62 ± 0.26 kg/m3
mass density ([3]; x1 = 1): 858.2 ± 0.23 kg/m3

SMILES: NC1CCCCC1 [cyclohexylamine] + CCCCCCCCCC
mass density ([3]; x1 = 0.1004): 729.74 ± 0.37 kg/m3
mass density ([3]; x1 = 0.2003): 737.86 ± 0.36 kg/m3
mass density ([3]; x1 = 0.3002): 746.97 ± 0.35 kg/m3
mass density ([3]; x1 = 0.3994): 757.29 ± 0.34 kg/m3
mass density ([3]; x1 = 0.4998): 768.9 ± 0.32 kg/m3
mass density ([3]; x1 = 0.5996): 782.09 ± 0.31 kg/m3
mass density ([3]; x1 = 0.6996): 797.14 ± 0.29 kg/m3
mass density ([3]; x1 = 0.8002): 814.52 ± 0.28 kg/m3
mass density ([3]; x1 = 0.9006): 834.67 ± 0.26 kg/m3
mass density ([3]; x1 = 1): 858.2 ± 0.23 kg/m3

SMILES: NC1CCCCC1 [cyclohexylamine] + CCCCCCCCCCC
mass density ([3]; x1 = 1): 858.2 ± 0.23 kg/m3

SMILES: NC1CCCCC1 [cyclohexylamine] + CCc1ccccc1
activity coefficient ([4]; 353.15 K): 1.13 ± 0.07
activity coefficient ([4]; 373.15 K): 1.09 ± 0.07
activity coefficient ([4]; 393.15 K): 1.06 ± 0.06

SMILES: NC1CCCCC1 [cyclohexylamine] + Cc1ccccc1
activity coefficient ([4]; 353.15 K): 1.19 ± 0.07
activity coefficient ([4]; 373.15 K): 1.12 ± 0.07

SMILES: NC1CCCCC1 [cyclohexylamine] + Nc1ccccc1
mass density ([3]; x1 = 0.1161): 992.51 ± 0.25 kg/m3
mass density ([3]; x1 = 0.1936): 979.58 ± 0.23 kg/m3
mass density ([3]; x1 = 0.281): 965.35 ± 0.22 kg/m3
mass density ([3]; x1 = 0.3837): 949.2 ± 0.21 kg/m3
mass density ([3]; x1 = 0.4907): 932.82 ± 0.21 kg/m3
mass density ([3]; x1 = 0.5932): 917.38 ± 0.21 kg/m3
mass density ([3]; x1 = 0.7087): 900.24 ± 0.21 kg/m3
mass density ([3]; x1 = 0.7738): 890.69 ± 0.21 kg/m3
mass density ([3]; x1 = 0.8759): 875.75 ± 0.22 kg/m3
mass density ([3]; x1 = 1): 858.2 ± 0.23 kg/m3
activity coefficient ([4]; 383.15 K): 0.84 ± 0.05
activity coefficient ([4]; 393.15 K): 0.94 ± 0.06
activity coefficient ([4]; 403.15 K): 1.03 ± 0.06

SMILES: NC1CCCCC1 [cyclohexylamine] + O
mass density ([3]; x1 = 0.1002): 956.7 ± 0.15 kg/m3
mass density ([3]; x1 = 0.197): 935.34 ± 0.16 kg/m3
mass density ([3]; x1 = 0.2237): 930.93 ± 0.16 kg/m3
mass density ([3]; x1 = 0.3021): 919.43 ± 0.17 kg/m3
mass density ([3]; x1 = 0.397): 908.71 ± 0.18 kg/m3
mass density ([3]; x1 = 0.5016): 897.85 ± 0.19 kg/m3
mass density ([3]; x1 = 0.6037): 888.39 ± 0.2 kg/m3
mass density ([3]; x1 = 0.6931): 880.7 ± 0.21 kg/m3
mass density ([3]; x1 = 0.7801): 873.76 ± 0.21 kg/m3
mass density ([3]; x1 = 0.9004): 864.97 ± 0.22 kg/m3
mass density ([3]; x1 = 1): 858.2 ± 0.23 kg/m3

mass density ([1]; 298.15 K): 726.55 ± 0.38 kg/m3
mass density ([1]; 303.15 K): 722.54 ± 0.38 kg/m3
refractive index ([2]; 298.15 K): 1.4092 ± 0.0004
SMILES: CCCCCCCCCC [decane]

mass density ([3]; x2 = 0): 722.54 ± 0.38 kg/m3
SMILES: CCCCCCCCCC [decane] + NC1CCCCC1

mass density ([1]; 298.15 K): 862.59 ± 0.19 kg/m3
refractive index ([2]; 293.15 K): 1.496 ± 0.0004
SMILES: CCc1ccccc1 [ethylbenzene]

activity coefficient ([4]; 353.15 K): 1.18 ± 0.07
activity coefficient ([4]; 373.15 K): 1.16 ± 0.07
activity coefficient ([4]; 393.15 K): 1.13 ± 0.07
SMILES: CCc1ccccc1 [ethylbenzene] + NC1CCCCC1

mass density ([1]; 298.15 K): 679.43 ± 0.44 kg/m3
mass density ([1]; 303.15 K): 675.32 ± 0.44 kg/m3
refractive index ([2]; 298.15 K): 1.3853 ± 0.0004
SMILES: CCCCCCC [heptane]

mass density ([3]; x2 = 0): 675.32 ± 0.44 kg/m3
SMILES: CCCCCCC [heptane] + NC1CCCCC1

mass density ([1]; 293.15 K): 719.13 ± 0.38 kg/m3
mass density ([1]; 303.15 K): 710.05 ± 0.38 kg/m3
refractive index ([2]; 293.15 K): 1.4055 ± 0.0004
SMILES: CCCCCCCCC [nonane]

mass density ([3]; x2 = 0): 710.05 ± 0.38 kg/m3
SMILES: CCCCCCCCC [nonane] + NC1CCCCC1

mass density ([1]; 298.15 K): 698.49 ± 0.39 kg/m3
mass density ([1]; 303.15 K): 694.67 ± 0.39 kg/m3
refractive index ([2]; 298.15 K): 1.3946 ± 0.0004
SMILES: CCCCCCCC [octane]

mass density ([3]; x2 = 0): 694.67 ± 0.39 kg/m3
activity coefficient ([4]; 353.15 K): 1.36 ± 0.08
activity coefficient ([4]; 373.15 K): 1.29 ± 0.08
activity coefficient ([4]; 393.15 K): 1.2 ± 0.07
SMILES: CCCCCCCC [octane] + NC1CCCCC1

SMILES: Cc1ccccc1 [toluene] + NC1CCCCC1
activity coefficient ([4]; 353.15 K): 1.14 ± 0.07
activity coefficient ([4]; 373.15 K): 1.13 ± 0.07
activity coefficient ([4]; 393.15 K): 1.06 ± 0.06

mass density ([3]; x2 = 0): 732.93 ± 0.36 kg/m3
mass density ([3]; x2 = 0.1): 738.82 ± 0.35 kg/m3
mass density ([3]; x2 = 0.2172): 747 ± 0.34 kg/m3
mass density ([3]; x2 = 0.3066): 754.16 ± 0.34 kg/m3
mass density ([3]; x2 = 0.4011): 762.69 ± 0.33 kg/m3
mass density ([3]; x2 = 0.5005): 772.99 ± 0.32 kg/m3
mass density ([3]; x2 = 0.5997): 784.83 ± 0.3 kg/m3
mass density ([3]; x2 = 0.7005): 798.79 ± 0.29 kg/m3
mass density ([3]; x2 = 0.7998): 814.98 ± 0.27 kg/m3
mass density ([3]; x2 = 0.8998): 834.57 ± 0.26 kg/m3
SMILES: CCCCCCCCCCC [undecane] + NC1CCCCC1

refractive index ([2]; 293.15 K): 1.3336 ± 0.0004
SMILES: O [water]

Source: the NIST ThermoML archive (doi:10.1021/je050316s)
